In PMC5218480 (PLoS ONE, 2017):

Tested on: MV-4-11 cells
Test: Gene expression microarray analysis (Affymetrix PrimeView) and GSEA
Assay type: cell-based, human
Set-up: RFU PODN (11730768_x_at) / Fold change /veh PODN (11730768_x_at) / RFU LINC00158 (11744669_a_at) / Fold change /veh LINC00158 (11744669_a_at) / RFU DUSP10 (11751237_a_at) / Fold change /veh DUSP10 (11751237_a_at) / RFU ID3 (11757404_x_at) / Fold change /veh ID3 (11757404_x_at) / RFU PLEKHG5 (11737974_s_at) / Fold change /veh PLEKHG5 (11737974_s_at) / RFU LRRC4B (11730491_at) / Fold change /veh LRRC4B (11730491_at) / RFU GIMAP4 (11747438_a_at) / Fold change /veh GIMAP4 (11747438_a_at) / RFU KRT8 (11758183_x_at) / Fold change /veh KRT8 (11758183_x_at) / RFU CNN1 (11734310_a_at) / Fold change /veh CNN1 (11734310_a_at) / RFU VPS37D (11726825_at) / Fold change /veh VPS37D (11726825_at) / RFU C10orf10 (11716522_x_at) / Fold change /veh C10orf10 (11716522_x_at) / RFU KIR2DL2 /// KIR2DL4 /// KIR2DL5A /// KIR2DL5B /// KIR2DS1 /// KIR2DS2 /// KIR2DS3 /// KIR2DS4 /// KIR3DL3 /// KIR3DL3 /// KIR3DS1 (11738374_at) / Fold change /veh KIR2DL2 /// KIR2DL4 /// KIR2DL5A /// KIR2DL5B /// KIR2DS1 /// KIR2DS2 /// KIR2DS3 /// KIR2DS4 /// KIR3DL3 /// KIR3DL3 /// KIR3DS1 (11738374_at) / RFU C1QL1 (11718748_at) / Fold change /veh C1QL1 (11718748_at) / RFU TMPRSS4 (11747572_a_at) / Fold change /veh TMPRSS4 (11747572_a_at) / RFU HAMP (11756126_x_at) / Fold change /veh HAMP (11756126_x_at) / RFU RNFT2 (11725882_a_at) / Fold change /veh RNFT2 (11725882_a_at) / RFU NR4A2 (11747474_a_at) / Fold change /veh NR4A2 (11747474_a_at) / RFU ABCC12 (11746883_a_at) / Fold change /veh ABCC12 (11746883_a_at) / RFU TMEM136 (11760407_x_at) / Fold change /veh TMEM136 (11760407_x_at) / RFU CLDN22 /// WWC2 (11732394_at) / Fold change /veh CLDN22 /// WWC2 (11732394_at) / RFU HLA-DPB1 (11760878_x_at) / Fold change /veh HLA-DPB1 (11760878_x_at) / RFU SPINT1 (11716480_a_at) / Fold change /veh SPINT1 (11716480_a_at) / RFU GAP43 (11754022_s_at) / Fold change /veh GAP43 (11754022_s_at) / RFU A4GNT (11735810_at) / Fold change /veh A4GNT (11735810_at) / RFU PRB3 (11715151_x_at) / Fold change /veh PRB3 (11715151_x_at) / RFU TUBB4B (11761932_at) / Fold change /veh TUBB4B (11761932_at) / RFU CAPN14 (11732068_a_at) / Fold change /veh CAPN14 (11732068_a_at) / RFU TMCC2 (11721928_a_at) / Fold change /veh TMCC2 (11721928_a_at) / RFU IRGQ (11745062_a_at) / Fold change /veh IRGQ (11745062_a_at) / RFU FAM174B (11720279_a_at) / Fold change /veh FAM174B (11720279_a_at) / RFU TMPRSS4 (11748680_a_at) / Fold change /veh TMPRSS4 (11748680_a_at) / RFU FAM212B (11763350_a_at) / Fold change /veh FAM212B (11763350_a_at) / RFU PLEKHG5 (11743358_a_at) / Fold change /veh PLEKHG5 (11743358_a_at) / RFU ZSCAN30 (11745921_a_at) / Fold change /veh ZSCAN30 (11745921_a_at) / RFU CMKLR1 (11741424_a_at) / Fold change /veh CMKLR1 (11741424_a_at) / RFU LOC101060620 /// MAPK8IP1 (11723275_at) / Fold change /veh LOC101060620 /// MAPK8IP1 (11723275_at) / RFU SPTSSB (11747773_x_at) / Fold change /veh SPTSSB (11747773_x_at) / RFU PRSS12 (11739890_at) / Fold change /veh PRSS12 (11739890_at) / RFU BIN1 (11741810_x_at) / Fold change /veh BIN1 (11741810_x_at) / RFU WNT11 (11732464_a_at) / Fold change /veh WNT11 (11732464_a_at) / RFU C10orf10 (11716521_a_at) / Fold change /veh C10orf10 (11716521_a_at) / RFU C5orf56 (11738089_at) / Fold change /veh C5orf56 (11738089_at) / RFU CYB561 (11721691_x_at) / Fold change /veh CYB561 (11721691_x_at) / RFU ANKRD19P (11752326_a_at) / Fold change /veh ANKRD19P (11752326_a_at) / RFU OR2T12 /// OR2T33 /// OR2T8 (11738714_s_at) / Fold change /veh OR2T12 /// OR2T33 /// OR2T8 (11738714_s_at) / RFU VCAN (11748164_a_at) / Fold change /veh VCAN (11748164_a_at) / RFU JSRP1 (11732532_at) / Fold change /veh JSRP1 (11732532_at) / RFU KRTAP10-11 (11738290_x_at) / Fold change /veh KRTAP10-11 (11738290_x_at) / RFU MYO3A (11730013_a_at) / Fold change /veh MYO3A (11730013_a_at) / RFU EBF3 (11725865_a_at) / Fold change /veh EBF3 (11725865_a_at) / RFU CAMK2N1 (11719241_x_at) / Fold change /veh CAMK2N1 (11719241_x_at) / RFU C5orf56 (11738088_a_at) / Fold change /veh C5orf56 (11738088_a_at) / RFU OLFML3 (11715873_a_at) / Fold change /veh OLFML3 (11715873_a_at) / RFU LOC100653217 /// NTM (11731650_a_at) / Fold change /veh LOC100653217 /// NTM (11731650_a_at) / RFU MAPK11 (11762145_a_at) / Fold change /veh MAPK11 (11762145_a_at) / RFU FIZ1 (11724087_x_at) / Fold change /veh FIZ1 (11724087_x_at) / RFU OASL (11726364_x_at) / Fold change /veh OASL (11726364_x_at) / RFU SOX15 (11748057_x_at) / Fold change /veh SOX15 (11748057_x_at) / RFU CD79A (11719716_a_at) / Fold change /veh CD79A (11719716_a_at) / RFU HIST1H1D (11736915_at) / Fold change /veh HIST1H1D (11736915_at) / RFU CASKIN2 (11723855_a_at) / Fold change /veh CASKIN2 (11723855_a_at) / RFU LOC730098 (11760151_x_at) / Fold change /veh LOC730098 (11760151_x_at) / RFU OR4N2 (11742367_at) / Fold change /veh OR4N2 (11742367_at) / RFU PRRT2 (11749266_a_at) / Fold change /veh PRRT2 (11749266_a_at) / RFU SNX32 (11753110_a_at) / Fold change /veh SNX32 (11753110_a_at) / RFU CDHR5 (11726645_a_at) / Fold change /veh CDHR5 (11726645_a_at) / RFU RCAN1 (11760418_a_at) / Fold change /veh RCAN1 (11760418_a_at) / RFU FAM167A (11723789_a_at) / Fold change /veh FAM167A (11723789_a_at) / RFU FAM26E (11764081_at) / Fold change /veh FAM26E (11764081_at) / RFU ISYNA1 (11749810_s_at) / Fold change /veh ISYNA1 (11749810_s_at) / RFU ACY1 (11761880_at) / Fold change /veh ACY1 (11761880_at) / RFU 11764098_at / Fold change /veh 11764098_at / RFU SAMD14 (11745864_x_at) / Fold change /veh SAMD14 (11745864_x_at) / RFU NPB (11741838_a_at) / Fold change /veh NPB (11741838_a_at) / RFU TMPRSS6 (11731388_a_at) / Fold change /veh TMPRSS6 (11731388_a_at) / RFU KRTAP10-2 (11738614_at) / Fold change /veh KRTAP10-2 (11738614_at) / RFU ARHGAP8 /// PRR5-ARHGAP8 (11727945_x_at) / Fold change /veh ARHGAP8 /// PRR5-ARHGAP8 (11727945_x_at) / RFU KRTAP5-7 /// NADSYN1 (11734609_at) / Fold change /veh KRTAP5-7 /// NADSYN1 (11734609_at) / RFU RASL12 (11751679_a_at) / Fold change /veh RASL12 (11751679_a_at) / RFU CDKN2B (11736163_a_at) / Fold change /veh CDKN2B (11736163_a_at) / RFU PRF1 (11729649_at) / Fold change /veh PRF1 (11729649_at) / RFU, ZNF638 /// ZNF638-IT1 / Fold change vs veh, ZNF638 /// ZNF638-IT1 / RFU, PANK3 / Fold change vs veh, PANK3 / RFU, SH3YL1 / Fold change vs veh, SH3YL1 / RFU, ZEB2 / Fold change vs veh, ZEB2 / RFU, NRIP1 / Fold change vs veh, NRIP1 / RFU, PTTG1IP / Fold change vs veh, PTTG1IP / RFU, CAPN2 / Fold change vs veh, CAPN2 / RFU, MED14 / Fold change vs veh, MED14 / RFU, SNORA58 / Fold change vs veh, SNORA58 / RFU, C1orf63 / Fold change vs veh, C1orf63 / RFU, LRRFIP1 / Fold change vs veh, LRRFIP1 / RFU, NDUFAF7 / Fold change vs veh, NDUFAF7 / RFU, SLC12A2 / Fold change vs veh, SLC12A2 / RFU, IBTK / Fold change vs veh, IBTK / RFU, ESF1 / Fold change vs veh, ESF1 / Fold change vs veh, TMEM50B / RFU, TAOK1 / Fold change vs veh, TAOK1 / RFU, ACBD3 / Fold change vs veh, ACBD3 / RFU, TMA16 / Fold change vs veh, TMA16 / RFU, RWDD3 / Fold change vs veh, RWDD3 / RFU, BCAT1 / Fold change vs veh, BCAT1 / RFU, EDEM3 / Fold change vs veh, EDEM3 / RFU, TMEM33 / Fold change vs veh, TMEM33 / RFU, WDR75 / Fold change vs veh, WDR75 / RFU, AHCTF1 / Fold change vs veh, AHCTF1 / RFU, TFRC / Fold change vs veh, TFRC / RFU, ZDHHC17 / Fold change vs veh, ZDHHC17 / RFU, NOM1 / Fold change vs veh, NOM1 / RFU, ARL8B / Fold change vs veh, ARL8B / RFU, ZBTB11 / Fold change vs veh, ZBTB11 / RFU, TAMM41 / Fold change vs veh, TAMM41 / RFU, KIAA1704 /// LOC100996395 / Fold change vs veh, KIAA1704 /// LOC100996395 / RFU, ING1 / Fold change vs veh, ING1 / RFU, TRMT61B / Fold change vs veh, TRMT61B / RFU, FUBP3 / Fold change vs veh, FUBP3 / RFU, TP53 / Fold change vs veh, TP53 / RFU, TNKS2 / Fold change vs veh, TNKS2 / RFU, ZFP14 / Fold change vs veh, ZFP14 / RFU, ACTR2 / Fold change vs veh, ACTR2 / RFU, PPP3R1 / Fold change vs veh, PPP3R1 / RFU, PIK3R1 / Fold change vs veh, PIK3R1 / RFU, HNRNPA1 / Fold change vs veh, HNRNPA1 / RFU, RNF170 / Fold change vs veh, RNF170 / RFU, ZNF28 / Fold change vs veh, ZNF28 / RFU, RNGTT / Fold change vs veh, RNGTT / RFU, OGT / Fold change vs veh, OGT / RFU, BRD1 / Fold change vs veh, BRD1 / RFU, MARS / Fold change vs veh, MARS / RFU, ZNF655 / Fold change vs veh, ZNF655 / RFU, FAHD1 / Fold change vs veh, FAHD1 / RFU, BDP1 / Fold change vs veh, BDP1 / RFU, LRRCC1 / Fold change vs veh, LRRCC1 / RFU, ARID1A / Fold change vs veh, ARID1A / RFU, ZNF146 / Fold change vs veh, ZNF146 / RFU, ZNF330 / Fold change vs veh, ZNF330 / RFU, GPN3 / Fold change vs veh, GPN3 / RFU, C9orf123 / Fold change vs veh, C9orf123 / RFU, N4BP2L2 / Fold change vs veh, N4BP2L2 / RFU, ARFIP1 / Fold change vs veh, ARFIP1 / RFU, FAM179B / Fold change vs veh, FAM179B / RFU, BCL10 / Fold change vs veh, BCL10 / RFU, UHRF1BP1L / Fold change vs veh, UHRF1BP1L / RFU, BET1 / Fold change vs veh, BET1 / RFU, CNOT2 / Fold change vs veh, CNOT2 / RFU, ZNF268 / Fold change vs veh, ZNF268 / Fold change vs veh, ZNF507 / RFU, DGCR2 / Fold change vs veh, DGCR2 / RFU, WDSUB1 / Fold change vs veh, WDSUB1 / Fold change vs veh, HSP90B1 /// MIR3652 / RFU, ADSS / Fold change vs veh, ADSS / RFU, GK / Fold change vs veh, GK / RFU, ZNF148 / Fold change vs veh, ZNF148 / RFU, TAF9 / Fold change vs veh, TAF9 / RFU, SLC1A5 / Fold change vs veh, SLC1A5 / RFU, SLMO2 / Fold change vs veh, SLMO2 / RFU, ABCC4 / Fold change vs veh, ABCC4 / RFU, LOC101060439 /// RAP1B / Fold change vs veh, LOC101060439 /// RAP1B / RFU, RFX7 / Fold change vs veh, RFX7 / RFU, GTPBP10 / Fold change vs veh, GTPBP10 / RFU, CNEP1R1 / Fold change vs veh, CNEP1R1 / RFU, BIVM-ERCC5 /// ERCC5 / Fold change vs veh, BIVM-ERCC5 /// ERCC5 / RFU, ILF3 / Fold change vs veh, ILF3 / RFU 11762660_at / Fold change /veh 11762660_at / RFU VCAN (11757783_s_at) / Fold change /veh VCAN (11757783_s_at) / RFU DDX43 (11728927_at) / Fold change /veh DDX43 (11728927_at) / RFU KRT8 (11758188_x_at) / Fold change /veh KRT8 (11758188_x_at) / RFU NKD1 (11759106_at) / Fold change /veh NKD1 (11759106_at) / RFU SRD5A1 (11742802_a_at) / Fold change /veh SRD5A1 (11742802_a_at) / RFU TPSAB1 /// TPSB2 (11721975_s_at) / Fold change /veh TPSAB1 /// TPSB2 (11721975_s_at) / RFU GSTM3 (11746129_a_at) / Fold change /veh GSTM3 (11746129_a_at) / RFU IL23R (11737362_x_at) / Fold change /veh IL23R (11737362_x_at) / RFU TMEM51 (11727254_a_at) / Fold change /veh TMEM51 (11727254_a_at) / RFU PIWIL2 (11732686_x_at) / Fold change /veh PIWIL2 (11732686_x_at) / RFU ORM1 (11744905_x_at) / Fold change /veh ORM1 (11744905_x_at) / RFU CCDC152 (11743942_at) / Fold change /veh CCDC152 (11743942_at) / RFU ECM1 (11717891_a_at) / Fold change /veh ECM1 (11717891_a_at) / RFU IL23R (11748794_a_at) / Fold change /veh IL23R (11748794_a_at) / RFU TNFAIP8L3 (11732012_x_at) / Fold change /veh TNFAIP8L3 (11732012_x_at) / RFU MBOAT4 (11741988_at) / Fold change /veh MBOAT4 (11741988_at) / RFU 11764193_at / Fold change /veh 11764193_at / RFU TMEM53 (11763286_at) / Fold change /veh TMEM53 (11763286_at) / RFU MAGEB2 (11727129_at) / Fold change /veh MAGEB2 (11727129_at) / RFU TMEM200A (11744735_a_at) / Fold change /veh TMEM200A (11744735_a_at) / RFU CCDC152 (11751479_a_at) / Fold change /veh CCDC152 (11751479_a_at) / RFU FAM211A (11726209_a_at) / Fold change /veh FAM211A (11726209_a_at) / RFU RGS16 (11746705_a_at) / Fold change /veh RGS16 (11746705_a_at) / RFU VCAN (11755009_s_at) / Fold change /veh VCAN (11755009_s_at) / RFU RHOB (11743442_s_at) / Fold change /veh RHOB (11743442_s_at) / RFU RGS16 (11720943_a_at) / Fold change /veh RGS16 (11720943_a_at) / RFU RGS16 (11720944_at) / Fold change /veh RGS16 (11720944_at) / RFU, VPS4B / Fold change vs veh, VPS4B / RFU, CREB1 / Fold change vs veh, CREB1 / RFU, DNAJC13 / Fold change vs veh, DNAJC13 / RFU, GNAQ / Fold change vs veh, GNAQ / RFU, CDK5R1 / Fold change vs veh, CDK5R1 / RFU, ZRANB3 / Fold change vs veh, ZRANB3 / RFU, CUL4A / Fold change vs veh, CUL4A / RFU, CCNY / Fold change vs veh, CCNY / RFU, UFL1 / Fold change vs veh, UFL1 / RFU, COG3 / Fold change vs veh, COG3 / RFU, DIAPH2 / Fold change vs veh, DIAPH2 / RFU, SKA2 / Fold change vs veh, SKA2 / RFU, AFF3 / Fold change vs veh, AFF3 / RFU, LMF1 / Fold change vs veh, LMF1 / RFU, IPO11 / Fold change vs veh, IPO11 / RFU, DFFB / Fold change vs veh, DFFB / RFU, FOXP1 / Fold change vs veh, FOXP1 / RFU, CARD8 / Fold change vs veh, CARD8 / RFU, STRN3 / Fold change vs veh, STRN3 / RFU, ADK / Fold change vs veh, ADK / RFU, RASSF2 / Fold change vs veh, RASSF2 / RFU, WIPF1 / Fold change vs veh, WIPF1 / RFU, LARP1B / Fold change vs veh, LARP1B / RFU, RASA1 / Fold change vs veh, RASA1 / RFU, RB1 / Fold change vs veh, RB1 / RFU, PPFIA1 / Fold change vs veh, PPFIA1 / RFU, MAT2A / Fold change vs veh, MAT2A / RFU, CCT5 / Fold change vs veh, CCT5 / RFU, WDR92 / Fold change vs veh, WDR92 / RFU, CUX1 / Fold change vs veh, CUX1 / RFU, TTC7A / Fold change vs veh, TTC7A / RFU, TMEM135 / Fold change vs veh, TMEM135 / RFU, DEPTOR / Fold change vs veh, DEPTOR / RFU, CPM / Fold change vs veh, CPM / RFU, DNAJB6 / Fold change vs veh, DNAJB6 / RFU, CACNA2D3 / Fold change vs veh, CACNA2D3 / RFU, DTX4 / Fold change vs veh, DTX4 / RFU, TFCP2 / Fold change vs veh, TFCP2 / RFU, GMCL1 /// GMCL1P1 / Fold change vs veh, GMCL1 /// GMCL1P1 / RFU, AEBP2 / Fold change vs veh, AEBP2 / RFU, SNHG1 /// SNORD22 /// SNORD25 /// SNORD26 /// SNORD27 /// SNORD28 /// SNORD29 /// SNORD31 / Fold change vs veh, SNHG1 /// SNORD22 /// SNORD25 /// SNORD26 /// SNORD27 /// SNORD28 /// SNORD29 /// SNORD31 / Fold change (Aza/veh), C12orf56 (ProbeSet 11735607_a_at) / Fold change (ACY-1035/veh), C12orf56 (ProbeSet 11735607_a_at) / Fold change (Aza/veh), FGFR1OP (ProbeSet 11751329_s_at) / Fold change (ACY-1035/veh), FGFR1OP (ProbeSet 11751329_s_at) / Fold change (Aza/veh), VPS36 (ProbeSet 11739960_a_at) / Fold change (ACY-1035/veh), VPS36 (ProbeSet 11739960_a_at) / RFU SYPL1 (11715823_x_at) / Fold change /veh SYPL1 (11715823_x_at) / RFU IGFBP7 (11715501_s_at) / Fold change /veh IGFBP7 (11715501_s_at) / RFU REEP3 (11722064_at) / Fold change /veh REEP3 (11722064_at) / RFU IGLL1 (11728026_x_at) / Fold change /veh IGLL1 (11728026_x_at): dose or concentration left out as unconfirmed
Details: ProbeSet 11730501_a_at; LIST D

## Nc1ccc(-c2cccs2)cc1NC(=O)c1ccc2c(c1)cc(C1CC1)n2CCN1CCOCC1 [ACY-1035]
  Fold change vs veh, CACNA2D3: 1.05
